# Assay results: patent publication US20240059740A1, “CYCLIC PEPTIDES AND USES THEREOF” (PRE[…] INC., priority 2020, published 2024)
# Residues, ends and D or L forms follow the SMILES beside them.
# Tested on: MMP-9 mRNA
# Assay: Real time RT-PCR, MMP-9 mRNA expression
# Assay type: cell-based, human
# Excerpt: The real-time reverse transcription polymerase chain reaction (RT-PCR) uses fluorescent reporter molecules to monitor the production of amplification products during each cycle of the PCR reaction. This combines the nucleic acid amplification and detection steps into one homogeneous assay and use of appropriate chemistries and data analysis eliminates the need for Southern blotting or DNA sequencing for amplicon identification. Its simplicity, specificity and sensitivity, together with its potential for high throughput and the ongoing introduction of new chemistries, more reliable instrumentation and improved protocols, has made real-time RT-PCR the benchmark technology for the detection and/or comparison of RNA levels.’
# In order to detect and quantify the expression of specific genes at mRNA level, real-time reverse transcriptase polymerase chain reaction (Real time RT-PCR) was performed. Total RNA of samples was isolated and purified using the PureLink® RNA Mini Kit (Life technologies). The concentration of total RNA was detected by NanoDrop 2000 Spectrophotometer (Thermo Scientific). The total RNA (2000 ng) was reverse transcribed using the High-Capacity cDNA Reverse Transcription Kit (Applied Biosystems™).
# The primers of target genes were TaqMan™ Gene Expression Assay for human PLAU (Hs01547054_m1), MMP-2 (Hs01548727_m1), MMP-9 (Hs00957562_m1), Snail-1 (Hs00195591_m1), Snail-2 (Hs00161904_m1), N-cadherin (Hs00983056_m1) and Twist (Hs01675818_s1). Relative quantification was done by reference to 18S ribosomal RNA (18S rRNA) and analysed using the comparative critical threshold (Ct) method
# The mRNA expression of MMPs was measured using qRT-PCR. This was tested three independent times; the results are shown in Tables 9, 10 and 11 for U251, U87 cells and O81024 cells respectively. Results are reported as percent of the control cells (no treatment). Both MMP-2 and uPA were decreased in U251 by SEQ ID NO.1.
compound,measurement,setting,value
"CC(C)C[C@@H]1NC(=O)[C@H](C)NC(=O)[C@@H](NC(=O)[C@@H]2CCCN2C(=O)[C@@H](N)CC(C)C)CSSC(C)(C)CNC(=O)CC[C@@H](C(=O)N[C@@H](CCCNC(=N)N)C(N)=O)NC(=O)[C@H](CC(=O)O)NC(=O)[C@H](CC(N)=O)NC1=O [SEQ ID NO: 1, Leu-Pro-c(SSA*-Ala-Leu-Asn-Asp-Glu)-Arg-NH2] (HELM PEPTIDE1{L.P.C.A.L.N.D.E.R.[am]}|CHEM1{[CC(C)(CN[*:2])S[*:1]]}$PEPTIDE1,CHEM1,3:R3-1:R1|PEPTIDE1,CHEM1,8:R3-1:R2$$$V2.0; N-terminus assumed)","mRNA expression, MMP-9","081024 cells, baseline expression level = 1",0.63
same,"mRNA expression, MMP-9","U87 cells, baseline expression level = 1",0.66
same,"mRNA expression, MMP-9","U251 cells, relative to control (no treatment)",0.73
